This is an account of results in patent publication US12503482B2, “Compositions and methods for trehalose phospholipids” (The Brigham and Women's Hospital, Inc., priority 2019, dated 2025).

Positions count from the first letter of the chain named. Like-named read-outs stand apart in the source and are kept apart here.

Holding throughout (format): cell-based
The target of one assay is T1, murine Mincle (Mus musculus, UniProt Q9R0Q8).
T1 construct: expressed in transfected cells; host or cells: 2B4-NFAT-GFP cells
T1 sequence (Q9R0Q8 1-214): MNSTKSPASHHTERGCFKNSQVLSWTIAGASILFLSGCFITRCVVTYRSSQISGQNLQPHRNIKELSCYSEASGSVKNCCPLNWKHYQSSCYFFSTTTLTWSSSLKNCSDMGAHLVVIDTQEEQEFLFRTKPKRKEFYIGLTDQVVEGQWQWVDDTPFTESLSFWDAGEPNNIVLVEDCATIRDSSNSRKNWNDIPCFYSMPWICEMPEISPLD
T1 sequence (P20491 19-86 partner): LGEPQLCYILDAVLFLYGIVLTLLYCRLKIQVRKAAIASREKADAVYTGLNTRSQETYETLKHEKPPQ
Description: Mincle activation assay, murine Mincle-FcRγ GFP reporter cell line with plate-coated lipids.

In a further assay the target is T2, human Mincle (Homo sapiens, UniProt Q9ULY5).
T2 construct: expressed in transfected cells; host or cells: 2B4-NFAT-GFP cells
T2 sequence (Q9ULY5 1-219): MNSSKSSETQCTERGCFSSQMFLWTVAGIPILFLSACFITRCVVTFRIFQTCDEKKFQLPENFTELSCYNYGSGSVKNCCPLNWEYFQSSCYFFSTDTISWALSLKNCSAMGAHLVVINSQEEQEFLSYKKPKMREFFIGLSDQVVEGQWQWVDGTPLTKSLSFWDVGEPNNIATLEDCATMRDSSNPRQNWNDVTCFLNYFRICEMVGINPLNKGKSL
T2 sequence (P30273 19-86 partner): T1 sequence (P20491 19-86 partner) with V13I, A38T, R40Y, A43S, A45G, N51S, S54N
Description: Mincle activation assay, human Mincle-FcRγ GFP reporter cell line with plate-coated lipids. The note with it: FIG. 3D.

In the next assay the test system is FcRγ. The assay is described as follows: Negative control reporter cell line expressing FcRγ only. The conditions noted are these: FIG. 3D.

Consider “6,6′-diphosphatidyltrehalose [natural diPT]”, for which, on murine Mincle, the “amount of coated lipid at which reporter cells respond (GFP expression)” value (shortened to “amount of coated lipid”) turned out to be 5 ng.
On to `CCCCCCCCCCCCCCCC(=O)OC[C@H](COP(=O)(O)OCC1OC(OC2OC(COP(=O)(O)OC[C@@H](COC(=O)CCCCCCCCCCCCCCC)OC(=O)CCCCCCC[C@H]3C[C@H]3CCCCCC)C(O)C(O)C2O)C(O)C(O)C1O)OC(=O)CCCCCCC[C@H]1C[C@H]1CCCCCC` (some centres unmarked) [synthetic diPT, 6,6′-diphosphatidyltrehalose], for which the “relative sensitivity of murine Mincle to diPT versus TDM” value at murine Mincle (FIG. 3D) is on record as “the opposite is true”. Moreover, the “activation of murine Mincle reporter cell line” value on murine Mincle (comparison of murine and human reporter lines, FIG. 3D) is “activation present at nanogram levels”. The “amount of coated lipid” value at murine Mincle (murine Mincle-FcRγ reporter cell line, plate-coated lipid, FIG. 3C) worked out at 20 ng. For the same compound, the “relative sensitivity of human Mincle to diPT versus TDM” value on human Mincle is reported as “marginally more sensitive to diPT than to TDM”. Further, the “activation of human Mincle reporter cell line” value on human Mincle (comparison of murine and human reporter lines) is on record as “activation present at nanogram levels”. Besides, in the assay on FcRγ, the “activation of negative control cell line expressing FcRγ only” value is recorded as “failed to activate”.
For “trehalose dimycolate [TDM, reference compound]”, the “amount of coated lipid” value at murine Mincle came to 5 ng.
